Usually Ki stands for a dissociation constant, usually derived from enzyme kinetics or from competition with a known ligand. One may read the IC50 as the concentration that gives 50% inhibition. High values mean weaker potency in that assay, low ones greater potency in that assay. The term pIC50 denotes the negative decadic logarithm of the IC50, by convention in mol/L.

SMILES strings stand for the structures. pIC50: −log10 of the molar value.

Experiment [1] has as its target Leukotriene B4 receptor (Cavia porcellus). In words: Inhibition of specific binding of [3H]-LTB4 to LTB4 receptor in guinea pig lung membranes.
In the next experiment the target is Leukotriene B4 receptor (Homo sapiens, UniProt Q9NPC1+Q15722). In words: Inhibition of specific binding of [3H]LTB4 to LTB4 receptor in human neutrophils. The class given is protein assay.
The species named for the next experiment is Homo sapiens. In words: The compound was evaluated for its ability to inhibit LTB4-induced chemotaxis of human neutrophils. Type of experiment: functional.

As for `CCc1cc(C(C)=O)c(O)cc1OCCCOc1cccc(Oc2cccc(C(=O)[O-])c2)c1.[Na+]`, the Ki in experiment [1] worked out at 140 nM. Moreover, the 50% inhibitory concentration (IC50) on Leukotriene B4 receptor stood at 460 nM.

In the experiment listed under Homo sapiens, `CCCc1c(OCCCCOc2cc(O)c(C(C)=O)cc2CC)cccc1Oc1ccccc1C(=O)[O-].[Na+]` had a pIC50 of 5.51. Further, in experiment [1], the Ki was determined as 59 nM. The compound further had an IC50 on Leukotriene B4 receptor of 94 nM.

In turn, `CCCc1c(OCCCOc2cc(O)c(C(C)=O)cc2CC)cccc1Oc1ccccc1C(=O)[O-].[Na+]` had a pIC50 in the experiment filed under Homo sapiens of 6.10. In experiment [1], the inhibition constant Ki is 39 nM. In addition, on Leukotriene B4 receptor, the IC50 was 24 nM.

The compound `CCCc1cc(Oc2cccc(C(=O)[O-])c2)ccc1OCCCOc1cc(O)c(C(C)=O)cc1CC.[Na+]` gave a Ki in experiment [1] of 256 nM. This compound yielded an IC50 on Leukotriene B4 receptor of 160 nM.

Compound `CCc1cc(C(C)=O)c(O)cc1OCCCOc1ccc(Oc2ccc(C(=O)[O-])cc2)cc1.[Na+]` registered a Ki in experiment [1] of 90 nM. At Leukotriene B4 receptor, this compound had a concentration for half-maximal inhibition (IC50) of 190 nM.

As to `CCCc1c(OCCCOc2cc(O)c(C(C)=O)cc2CC)cccc1OCc1ccccc1C(=O)[O-].[Na+]`, the pIC50 in the experiment filed under Homo sapiens is 5.92. The compound further displayed a Ki in experiment [1] of 244 nM. In addition, the half-inhibitory concentration (IC50) on Leukotriene B4 receptor is given as 130 nM.

`CCCc1cc(Oc2ccc(C(=O)[O-])cc2)ccc1OCCCOc1cc(O)c(C(C)=O)cc1CC.[Na+]` had a Ki in experiment [1] of 1200 nM. This compound had an IC50 on Leukotriene B4 receptor of 330 nM.

In experiment [1], `CCc1cc(C(C)=O)c(O)cc1OCCCOc1cccc(Oc2ccccc2C(=O)[O-])c1.[Na+]` came in with a Ki of 130 nM. On Leukotriene B4 receptor, this compound gave an IC50 of 290 nM.

For the origin of these results see ChEMBL document CHEMBL1127113, “Diaryl ether/carboxylic acid derivatives of LY255283: Receptor antagonists of leukotriene B4” (Bioorg Med Chem Lett, 1993).
